Literature values as cited in patent publication US8476254B2, “Methods for treating psychosis associated with interferson-α therapy” (Corcept Therapeutics, Inc., priority 2002, dated 2013).

Settings: % of the daily dose; in one study (Kawai)

- fraction of the daily dose excreted in the urine: less than 0.5%
SMILES: CC#C[C@]1(O)CC[C@H]2[C@@H]3CCC4=CC(=O)CCC4=C3[C@@H](c3ccc(N(C)C)cc3)C[C@@]21C [Mifepristone, 17-beta-hydroxy-11-beta-(4-dimethyl-aminophenyl)-17-alpha-(1-propynyl)-estra-4,9-dien-3-one]
